Test results published in patent US20100041597A1, “PEPTIDES TARGETED TO PROTEIN KINASE C ISOFORMS AND USES THEREOF” (priority 2005, published 2010).

What was measured:
PKC-α [1] = biological target: T1, PKC-α (Homo sapiens, UniProt P17252); assay: Subcellular localisation of PKC-α in IMR-32 cells; type: cell-based; set-up: subcellular localisation of endogenous PKC-α in IMR-32 cells; endogenous in cells; host or cells: IMR-32; settings: 10 mg/ml, pinocytic endocytosis
Experimental: Peptides PRE 3 or PRE 4 (10 mg/ml) were introduced into human neuroblastoma cells (IMR-32) by pinocytic endocytosis. The cells were fixed and stained with rabbit PKC-A primary antibody and anti-rabbit Alexa-488 or Alexa-800 secondary antibody.
In most of the cells PKC-α can be seen to be located in the cytoplasm, around the nucleus and at the plasma membrane (where it becomes activated).

PKC-β = assay: In vitro competition with anti-PKC-β antibody, Protocol A, IMR-32 cells; type: binding, human; settings: for Band Intensity / Inhibition (%) / Relative Intensity (%): PKC-β, IMR-32, Table 6
Experimental: (§1) Cell lysates from either IMR-32 (human neuroblastoma) cells or C6Cx43 cells (rat glioma transfected cells overexpressing connexin 43) were obtained using standard protocols and the proteins of the lysate were separated by SDS PAGE electrophoresis and electrotransferred onto a nitrocellulose membrane. The membrane was incubated for 30 minutes in blocking buffer (TBST) containing the test peptide at either 5× or 20× the concentrations of the primary antibody. A primary polyclonal antibody specific for PKC-α (Santa Cruz Biotechnology, Inc., CA) was then added (15 μg/ml) and the membrane incubated for a further 45 minutes. Finally, the primary antibody was detected with a secondary antibody conjugated to alkaline phosphatase using standard procedures. The intensity of the band corresponding to PKC-α was assessed by scanning and densitometry using the Gel-Pro software (Media Cybernetics) to obtain relative band intensities (average of 3 replicas). Control assays were conducted as described above except that blocking buffer without peptide was used.
Peptides PRE 1, PRE 2 and PRE 3 (see Table 3) were tested for their ability to interfere with the binding of a PKC-β-specific polyclonal antibody (Santa Cruz Biotechnology, Inc.) to PKC-β using the general protocol described in Example 1. […] It is worth noting in this regard that PKC-α and PKC-β belong to the same sub-group of PKCs (cPKCs).

PKC-βI = PKC-βI (Homo sapiens, UniProt P05771); assay: In vitro competition with anti-PKC-βI antibody, Protocol B, IMR-32 cells; type: binding; set-up: PRE 3 and PRE 4 in IMR-32 Neuroblastoma Cells: Protocol B; endogenous in cells; host or cells: IMR-32; settings: for inhibition at 0.1 mg / remaining activity at 0.1 mg / Band Intensity / inhibition at 0.2 mg / remaining activity at 0.2 mg / inhibition at 0.3 mg / remaining activity at 0.3 mg: PKC-βI; for inhibition at 0.1 mg / inhibition at 0.2 mg / inhibition at 0.3 mg: Table 9; for remaining activity at 0.1 mg / remaining activity at 0.2 mg / remaining activity at 0.3 mg: Table 9, read-out: Relative Intensity (%); for Band Intensity: control band intensity 170.5, Table 9
Sequence of PKC-βI (P05771 whole entry): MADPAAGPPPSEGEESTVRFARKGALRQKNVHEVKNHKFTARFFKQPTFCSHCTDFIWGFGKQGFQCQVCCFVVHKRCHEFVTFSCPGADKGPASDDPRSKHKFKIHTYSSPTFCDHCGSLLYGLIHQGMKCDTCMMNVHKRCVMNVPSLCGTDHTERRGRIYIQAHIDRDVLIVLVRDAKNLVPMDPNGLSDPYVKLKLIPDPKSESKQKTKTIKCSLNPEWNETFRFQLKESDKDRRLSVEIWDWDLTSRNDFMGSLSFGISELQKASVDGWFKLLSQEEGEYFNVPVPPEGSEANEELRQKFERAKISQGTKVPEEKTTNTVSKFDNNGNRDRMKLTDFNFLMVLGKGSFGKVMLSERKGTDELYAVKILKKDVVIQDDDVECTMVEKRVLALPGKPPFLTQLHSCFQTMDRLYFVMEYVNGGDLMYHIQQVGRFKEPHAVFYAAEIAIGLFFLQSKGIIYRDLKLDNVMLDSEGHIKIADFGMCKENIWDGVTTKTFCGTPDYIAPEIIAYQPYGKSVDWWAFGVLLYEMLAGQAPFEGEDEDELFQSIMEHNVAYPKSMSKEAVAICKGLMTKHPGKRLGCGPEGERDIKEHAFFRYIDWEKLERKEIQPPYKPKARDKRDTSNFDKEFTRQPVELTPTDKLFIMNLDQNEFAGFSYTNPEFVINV
Experimental: (§2) The ability of the peptides PRE 2 and PRE 3 (see Table 3) to interfere with the binding of a PKC-α-specific polyclonal antibody (Santa Cruz Biotechnology, Inc.) to PKC-α was determined using a modified version of the protocol outlined above in which the test peptide was added directly to the cell extract prior to electrophoresis at a concentration of either 5× or 15× the concentration of the protein applied to each well of the gel for the Western blots (20 μg).
Peptides PRE 3 and PRE 4 (see Table 3) were tested for their ability to interfere with the binding of isoform-specific polyclonal antibodies (Santa Cruz Biotechnology, Inc.) to PKC-α, PKC-βI or PKC-βII using the general protocol described in Example 3.

PKC-α [2] = biological target: T1, PKC-α; assay: In vitro competition with anti-PKC-α antibody on blotted cell lysate, Protocol A, IMR-32 cells; type: binding; set-up: subcellular localisation of endogenous PKC-α in IMR-32 cells; endogenous in cells; host or cells: IMR-32
Experimental: The ability of the peptides to interfere with the binding of a PKC-α-specific monoclonal antibody to PKC-α was determined using the following protocol.
as §1, with “The membrane was incubated for 30 minutes in blocking buffer (TBST) containing the test peptide at either 5× or 20× the concentrations of the primary antibody.” left out
The results are expressed as relative band intensity and as a percentage of the intensity of the corresponding band in the control assay (“Relative intensity (%)”). “% inhibition” relates to the percentage of the PKC-α band that is inaccessible to the antibody.

PKC-ε = assay: In vitro competition with anti-PKC-ε antibody, Protocol B, IMR-32 cells; type: binding, human
Experimental: as §2
Peptides PRE 2, PRE 3 and PRE 4 (see Table 3) were tested for their ability to interfere with the binding of isoform-specific polyclonal antibodies (Santa Cruz Biotechnology, Inc.) to PKC-ε using the general protocol described in Example 3. Two bands, representing alternate splicing variants of PKC-ε, were identified on the Western blot using this anti-PKC-ε antibody.

[3] = 75 μg peptide, IMR-32, Protocol A, Table 4
[4] = 300 μg peptide, IMR-32, Protocol A, Table 4

Substance: Ac-AKGIQEVKGGDAQNLIGISI-NH2 [PRE 3]
- effect on subcellular localisation of PKC-α (PKC-α [1]): does not alter the subcellular localisation of PKC-α
- effect on antibody binding to PKC-β (PKC-β): did not show an effect on antibody binding to PKC-β
- Band Intensity (PKC-β; 75 μg): 1.900
- Inhibition (%) (PKC-β; 75 μg): 0.0%
- Relative Intensity (%) (PKC-β; 75 μg): 102.4%
- Band Intensity (PKC-β; 300 μg): 1.900
- Inhibition (%) (PKC-β; 300 μg): 0.0%
- Relative Intensity (%) (PKC-β; 300 μg): 102.4%
- Band Intensity (PKC-β; 600 μg): 1.847
- Inhibition (%) (PKC-β; 600 μg): 0.0%
- Relative Intensity (%) (PKC-β; 600 μg): 99.6%
- inhibition at 0.1 mg (PKC-βI; 100 μg): 100%
- remaining activity at 0.1 mg (PKC-βI; 100 μg): 0%
- Band Intensity (PKC-βI; 100 μg): 0.0
- inhibition at 0.2 mg (PKC-βI; 200 μg): 100%
- remaining activity at 0.2 mg (PKC-βI; 200 μg): 0%
- Band Intensity (PKC-βI; 200 μg): 0.0
- inhibition at 0.3 mg (PKC-βI; 300 μg): 100%
- remaining activity at 0.3 mg (PKC-βI; 300 μg): 0%
- Band Intensity (PKC-βI; 300 μg): 0.0
- Band Intensity (PKC-α [2]; 75 μg, IMR-32 Cells, Table 5): 0.889
- inhibition at 0.075 mg (PKC-α [2]; 75 μg, IMR-32 Cells, Table 5): 0.7%
- remaining activity at 0.075 mg (PKC-α [2]; 75 μg, IMR-32 Cells, Table 5, read-out: Relative Intensity (%)): 99.3%
- Band Intensity (PKC-α [2]; 300 μg, IMR-32 Cells, Table 5): 0.922
- inhibition at 0.3 mg (PKC-α [2]; 300 μg, IMR-32 Cells, Table 5): 0%
- remaining activity at 0.3 mg (PKC-α [2]; 300 μg, IMR-32 Cells, Table 5, read-out: Relative Intensity (%)): 103%
- Band Intensity (PKC-α [2]; 600 μg, IMR-32 Cells, Table 5): 0.888
- inhibition at 0.6 mg (PKC-α [2]; 600 μg, IMR-32 Cells, Table 5): 0%
- remaining activity at 0.6 mg (PKC-α [2]; 600 μg, IMR-32 Cells, Table 5, read-out: Relative Intensity (%)): 99.2%
- Band Intensity (PKC-α [2]; 3.75 mg, IMR-32 Cells, Table 5): 0.600
- remaining activity at 3.75 mg (PKC-α [2]; 3.75 mg, IMR-32 Cells, Table 5, read-out: Relative Intensity (%)): 102%
- Band Intensity (PKC-α [2]; 5.25 mg, IMR-32 Cells, Table 5): 0.603
- remaining activity at 5.25 mg (PKC-α [2]; 5.25 mg, IMR-32 Cells, Table 5, read-out: Relative Intensity (%)): 102%
- Band Intensity (PKC-α [2]; 7.5 mg, IMR-32 Cells, Table 5): 0.609
- inhibition at 7.5 mg (PKC-α [2]; 7.5 mg, IMR-32 Cells, Table 5): 0%
- remaining activity at 7.5 mg (PKC-α [2]; 7.5 mg, IMR-32 Cells, Table 5, read-out: Relative Intensity (%)): 103%
- effect on antibody binding to PKC-α (PKC-α [2]; Protocol A): did not show an effect on antibody binding
- Band Intensity (PKC-ε; 20 μg, PKC-ε Band 1, Table 10): 5.12
- Inhibition (%) (PKC-ε; 20 μg, PKC-ε Band 1, Table 10): 99.0%
- Relative Intensity (%) (PKC-ε; 20 μg, PKC-ε Band 1, Table 10): 0.12%
- Band Intensity (PKC-ε; 20 μg, PKC-ε Band 2, Table 10): 0.0
- Inhibition (%) (PKC-ε; 20 μg, PKC-ε Band 2, Table 10): 100.0%
- Relative Intensity (%) (PKC-ε; 20 μg, PKC-ε Band 2, Table 10): 0.0%
- Band Intensity (PKC-ε; 50 μg, PKC-ε Band 1, Table 10): 0.0
- Inhibition (%) (PKC-ε; 50 μg, PKC-ε Band 1, Table 10): 100.0%
- Relative Intensity (%) (PKC-ε; 50 μg, PKC-ε Band 1, Table 10): 0.0%
- Band Intensity (PKC-ε; 50 μg, PKC-ε Band 2, Table 10): 0.0
- Inhibition (%) (PKC-ε; 50 μg, PKC-ε Band 2, Table 10): 100.0%
- Relative Intensity (%) (PKC-ε; 50 μg, PKC-ε Band 2, Table 10): 0.0%
- Band Intensity (PKC-ε; 100 μg, PKC-ε Band 1, Table 10): 0.0
- Inhibition (%) (PKC-ε; 100 μg, PKC-ε Band 1, Table 10): 100.0%
- Relative Intensity (%) (PKC-ε; 100 μg, PKC-ε Band 1, Table 10): 0.0%
- Band Intensity (PKC-ε; 100 μg, PKC-ε Band 2, Table 10): 0.0
- Inhibition (%) (PKC-ε; 100 μg, PKC-ε Band 2, Table 10): 100.0%
- Relative Intensity (%) (PKC-ε; 100 μg, PKC-ε Band 2, Table 10): 0.0%

Substance: Ac-KDAQNLIGISI-NH2 [PRE 4, Ac-KDAQNLIGISI-NH2]
- effect on subcellular localisation of PKC-α (PKC-α [1]): prevented translocation of PKC-α to the membrane
- effect on antibody binding to PKC-βI (PKC-βI): some cross-reactivity
- inhibition at 0.1 mg (PKC-βI; 100 μg): 34%
- remaining activity at 0.1 mg (PKC-βI; 100 μg): 66%
- Band Intensity (PKC-βI; 100 μg): 112.5
- inhibition at 0.2 mg (PKC-βI; 200 μg): 100%
- remaining activity at 0.2 mg (PKC-βI; 200 μg): 0%
- Band Intensity (PKC-βI; 200 μg): 0.0
- inhibition at 0.3 mg (PKC-βI; 300 μg): 100%
- remaining activity at 0.3 mg (PKC-βI; 300 μg): 0%
- Band Intensity (PKC-βI; 300 μg): 0.0
- effect on antibody binding to PKC-ε (PKC-ε): some cross-reactivity with PKC-ε
- Band Intensity (PKC-ε; 20 μg, PKC-ε Band 1, Table 10): 184.38
- Inhibition (%) (PKC-ε; 20 μg, PKC-ε Band 1, Table 10): 42.9%
- Relative Intensity (%) (PKC-ε; 20 μg, PKC-ε Band 1, Table 10): 57.1%
- Band Intensity (PKC-ε; 20 μg, PKC-ε Band 2, Table 10): 152.66
- Inhibition (%) (PKC-ε; 20 μg, PKC-ε Band 2, Table 10): 46.6%
- Relative Intensity (%) (PKC-ε; 20 μg, PKC-ε Band 2, Table 10): 53.33%
- Band Intensity (PKC-ε; 50 μg, PKC-ε Band 1, Table 10): 0.0
- Inhibition (%) (PKC-ε; 50 μg, PKC-ε Band 1, Table 10): 100.0%
- Relative Intensity (%) (PKC-ε; 50 μg, PKC-ε Band 1, Table 10): 0.0%
- Band Intensity (PKC-ε; 50 μg, PKC-ε Band 2, Table 10): 0.0
- Inhibition (%) (PKC-ε; 50 μg, PKC-ε Band 2, Table 10): 100.0%
- Relative Intensity (%) (PKC-ε; 50 μg, PKC-ε Band 2, Table 10): 0.0%
- Band Intensity (PKC-ε; 100 μg, PKC-ε Band 1, Table 10): 0.0
- Inhibition (%) (PKC-ε; 100 μg, PKC-ε Band 1, Table 10): 100.0%
- Relative Intensity (%) (PKC-ε; 100 μg, PKC-ε Band 1, Table 10): 0.0%
- Band Intensity (PKC-ε; 100 μg, PKC-ε Band 2, Table 10): 0.0
- Inhibition (%) (PKC-ε; 100 μg, PKC-ε Band 2, Table 10): 100.0%
- Relative Intensity (%) (PKC-ε; 100 μg, PKC-ε Band 2, Table 10): 0.0%

Substance: RRKKGGKDFVVKR [PRE 1]
- effect on antibody binding to PKC-β (PKC-β): some cross reactivity
- Band Intensity (PKC-β; 75 μg): 0.825
- Inhibition (%) (PKC-β; 75 μg): 28.9%
- Relative Intensity (%) (PKC-β; 75 μg): 71.1%
- Band Intensity (PKC-β; 300 μg): 0.528
- Inhibition (%) (PKC-β; 300 μg): 54.5%
- Relative Intensity (%) (PKC-β; 300 μg): 45.5%
- Band Intensity (PKC-α [2]; [3]): 1.040
- Inhibition (%) (PKC-α [2]; [3]): 50.2%
- Relative Intensity (%) (PKC-α [2]; [3]): 49.8%
- Band Intensity (PKC-α [2]; [4]): 0.771
- Inhibition (%) (PKC-α [2]; [4]): 63.1%
- Relative Intensity (%) (PKC-α [2]; [4]): 36.9%
- effect on antibody binding to PKC-α (PKC-α [2]; Protocol A): mask the antigenic site of PKC-α
